In data set [1] the test system is ICR mice. Nature of the data set: Mice burden swimming test. The class given is in vivo. Conditions: for Swimming time / Change rate of swimming time: gavage once a day, 30 days; for Swimming time: 6% body weight load; for Change rate of swimming time: vs normal control. The procedure: According to the Technical Standards for Testing & Assessment of Health Food issued by the Ministry of Health, P. R. China, function and biochemistry indexes assessment of the mixture of 20(S)-protopanoxadiol and lycium barbarum polysaccharide on the function of relieving physical fatigue is conducted; the detailed method is given as follows:
(§1) 1. Experimental animals: ICR mice, male, 18-22 g, provided by Shanghai Slack laboratory animal Co. Ltd., license number: SCXK (Shanghai) 2007-0005;
20(S)-protopanoxadiol: provide by Shanghai Innovative Research Center of Traditional Chinese Medicine, batch number: 20050606-1, purity: 94%; lycium barbarum polysaccharide: provided by Shanghai KangZhou Fungi Extract Co. Ltd., polysaccharide content≧30%.
To 20(S)-protopanoxadiol is added a small amount of 0.3% CMC-Na, followed by grinding to form a suspension and diluting with CMC-Na to a desired concentration. Then lycium barbarum polysaccharide is added to the 20(S)-protopanoxadiol suspension to form a composition with a certain concentration.
(§2) 3. Experimental groups: the mice are randomly divided into 19 groups by weight, 20 mice per each group; the detailed groups are as follows:
(§3) 0.2 ml/10 g of drug is administrated by gavage every day; for normal control group, 0.2 ml/10 g of distilled water is administrated by gavage every day; once a day, 30 days in total.
30 minutes after the last time of administrating drug, the end of the tail of each mouse is loaded with copper wires corresponding to 6% of its body weight, then the mouse is put in a swimming box to swim, the time from start of swimming to death of the mouse is recorded, i.e. the mice burden swimming time; the water depth in the swimming box is 30 cm or more, and water temperature is 23+1.0° C.
5. Statistical data processing: t-test is conducted to calculate P value, Jin Zhengjun formula is used to conduct combined medication analysis.
Other than the combined dosage of Experimental example 1, the range of combined dosage is enlarged to conduct multi-batch experiments. The experimental animals, drugs and method are the same as those of Experimental example 1, and the final results are shown in Table 2: […]

Data set [2] can be described thus: Animal weight during the 30-day gavage of the burden swimming study. The class given is in vivo, mice. Conditions: gavage once a day, 30 days. How it is done:
as §1, §2, §3

SMILES strings stand for the structures. Marks after values point to notes of the source that are not given here.

As to `CC(C)=CCC[C@](C)(O)[C@H]1CC[C@]2(C)[C@@H]1[C@H](O)C[C@@H]1[C@@]3(C)CC[C@H](O)C(C)(C)[C@@H]3CC[C@]12C` [20(S)-protopanoxadiol], the Swimming time in data set [1] (0.01 mg/kg) was found to be 640 ± 275 s; in data set [1] (0.5 mg/kg), 660 ± 268 s; in data set [1] (1 mg/kg), 658 ± 296 s; in data set [1] (5 mg/kg) it was 640 ± 286 s. For the same molecule, the “Change rate of swimming time” value in data set [1] (0.01 mg/kg) worked out at 1.5%; in data set [1] (0.5 mg/kg), 1.9%; in data set [1] (1 mg/kg) it was 2.2%; in data set [1] (5 mg/kg), 1.5%. Besides, the “Swimming time change rate” value in data set [1] (Table 2, 0.01 mg/kg) worked out at 1.5%; in data set [1] (Table 2, 0.5 mg/kg) it was 1.9%; in data set [1] (Table 2, 1 mg/kg), 2.2%; in data set [1] (Table 2, 3 mg/kg) it was 1.6%; in data set [1] (Table 2, 6.25 mg/kg) it was 1.4%; in data set [1] (Table 2, 12.5 mg/kg), 3.4%. The “Swimming time change rate” value in data set [1] (Table 2, 25 mg/kg) was 6.9%; in data set [1] (Table 2, 50 mg/kg), 12.4* %. Further, the “Effect on mice swimming time (in words)” value in data set [1] (Table 2, single use, compared with normal control group (P>0.05)) is reported as “no significant effect on mice swimming time”. Further, the “Animal weight start/finish (finish)” value in data set [2] (0.01 mg/kg) is reported as 21.6/39.2 g; in data set [2] (0.5 mg/kg) it was 21.8/38.8 g; in data set [2] (1 mg/kg), 21.7/38.7 g; in data set [2] (5 mg/kg) it was 21.8/38.9 g.

Values taken from patent US9603866B2, “Anti-fatigue composition, formulation and use thereof” (priority 2010, dated 2017).
